Data on 42 molecules can be found in patent US7402696B2, “Benzene compounds” (Ajinomoto Co., Inc., priority 2004, dated 2008).

This assay addresses T1, ACC (acetyl CoA carboxylase) purified from liver of male SD rat (Rattus norvegicus, UniProt P11497).
T1 construct: applied to a monomeric avidin sepharose column, and washed with buffer B. The ACC was eluted with buffer B containing 2 mM d-biotin; from tissue; host or cells: liver of male SD rat
Description: Measurement of ACC inhibition activity ([14C]-NaHCO3 incorporation). It counts as biochemical. Conditions: ACC inhibition activity rate at 1 μM, read-out: ACC Inhibition (%). The method, then:
A male SD rat was deprived of food for two days and then fed a high-sucrose diet (component) for two days. While anesthetized with ether, the descending vena cava was cut upon, the animal was bled, and the liver was rapidly recovered. In an ice-cooled buffer solution A (225 mM mannitol, 75 mM sucrose, 10 mM Tris-HCl (pH 7.5), 0.05 mM EDTA, 5 mM potassium citrate, 2.5 mM MgCl2, 10 mg/L pepstatin A, 10 mg/L leupeptin, 1 mM PMSF), the liver was homogenized with a polytone homogenizer. A quantity of buffer A nine times the weight of the liver was added, the mixture was centrifuged for 10 minutes at 1,000 g, the supernatant was recovered, and the supernatant was centrifuged for another 10 minutes at 17,000 g.
Ammonium sulfate was added to 35 percent saturation to the obtained supernatant. The mixture was stirred for 45 minutes and then centrifuged for 10 minutes at 17,000 g. Buffer solution B (100 mM Tris-HCl (pH 7.5), 500 mM NaCl, 1 mM EDTA, 0.1 mM DTT, 10 percent glycerol, 10 mg/L pepstatin A, 10 mg/L leupeptin, 0.5 mM PMSF) was added to the obtained precipitate and dissolved. The solution was then centrifuged for 20 minutes at 40,000 g. The supernatant was dialyzed overnight against buffer C (100 mM Tris-HCl (pH 7.5), 500 mM NaCl, 1 mM EDTA, 0.1 mM DTT, 5 percent glycerol).
The dialyzed supernatant was passed through a […], applied to a monomeric avidin sepharose column, and washed with buffer B. The ACC was eluted with buffer B containing 2 mM d-biotin.
(2 Measurement of ACC Inhibition Activity)
The compounds synthesized in the above-described embodiments were dissolved in DMSO and charged to glass vials. 250 μL of ACC-containing reaction solution (40 mM Tris-HCl (pH 7.5), 40 mM MgCl2, 40 mM sodium citrate, and 2 mM DTT) was added. The mixture was heated for 30 minutes at 37° C. in a thermostatic chamber and then cooled with ice. To reaction solution 1 was added 250 μL of reaction solution 2 containing [14C]—NaHCO3 (40 mM Tris-HCl (pH 7.5), 2 mM DTT, 8 mM ATP, 0.5 mM acetyl CoA) and the mixture was heated for 10 minutes at 37° C. 100 μL of 1N HCl was added to stop the reaction. Water in the reaction solution was removed with a centrifugal evaporator, a scintillator was added, the solid component was dissolved, and the 14C radioactivity was measured with a liquid scintillation counter. The ACC inhibition activity of each compound was calculated from the following equation and converted to the ACC inhibition activity rate (%) at 1 μM.
ACC inhibition rate (%)=(1−(a−c)/(b−c))×100 a. Radioactivity when test drug added b: Radioactivity when test drug not added c: Blank* *Reaction solution 1 to which 100 μL of 1N HCl was added before mixing reaction solution 1 and reaction solution 2

The mark [1] stands for this setting: Table 3-II, Mode 2 benzimidazole compounds (numbers = x-II).
Where [2] appears, read: Table 4-A, further compounds of Modes 2 and 3.
The mark [3] stands for this setting: Table 4-IV, Mode 4 benzenediamine compounds (numbers = x-IV).
The mark [4] stands for this setting: Table 2-III, Mode 3 acetylene/oxadiazole/thiazole compounds (numbers = x-III).
The mark [5] stands for this setting: Table 3-I, Mode 1 quinoline compounds (numbers = x-I).

The structures appear in SMILES notation. Like-named read-outs stand apart in the source and are kept apart here.

The inhibition is the percentage by which the read-out fell short of the control. For the molecule `CCCCCC(=O)NS(=O)(=O)c1ccccc1NC(=O)c1ccc2c(c1)nc(-c1cc(C(F)(F)F)cc(C(F)(F)F)c1)n2-c1ccc(C(F)(F)F)cc1` [compound 2], the inhibition at 1 µM under setting [1] amounted to 92%.

Regarding `O=C(/C=C/c1ccccc1)NS(=O)(=O)c1cccc(-c2nc(-c3ccc(-c4csc(-c5ccccc5)n4)cc3)no2)c1` [Compound 142-III], the inhibition at 1 µM under setting [2] turned out to be 100%. In the case of `CN(C)CCNc1ccc(C(=O)Nc2cccc(C(=O)NS(=O)(=O)c3ccccc3)c2)cc1[N+](=O)[O-]` [compound 62], the inhibition at 1 µM under setting [3] was 53%. For `CC(C)CCN(C)c1ccc(C(=O)NC(CC(=O)NS(=O)(=O)c2ccccc2)c2ccccc2)cc1N(C)Cc1ccccc1` (stereo not drawn) [compound 121], the inhibition at 1 µM under setting [3] was 90%.

Turning to `O=C(O)c1ccccc1-c1nc(-c2ccc(-c3nc(-c4cc(C(F)(F)F)cc(C(F)(F)F)c4)cs3)cc2)cs1` [compound 1], the inhibition at 1 µM under setting [4] is 62%. For the molecule `CCCCCC(=O)NS(=O)(=O)c1ccccc1NC(=O)c1ccc(Nc2ccccc2)c(NC(=O)c2cc(C(F)(F)F)cc(C(F)(F)F)c2)c1` [compound 26], under setting [3], the inhibition at 1 µM was 78%.

Turning to `COC(=O)c1cccc(S(=O)(=O)NC(=O)c2cccc(-c3nc(-c4ccc(N(C)CCC(C)C)c(NCc5ccc(OCCO)cc5)c4)no3)c2)c1` [Compound 133-IV], the inhibition at 1 µM under setting [3] was 99%. Consider `Cc1ccccc1S(=O)(=O)NC(=O)CC(NC(=O)c1ccc(N(C)CCC(C)C)c(N(C)Cc2ccccc2)c1)C1CCCCC1` (stereo not drawn) [compound 118], for which the inhibition at 1 µM under setting [3] is 93%. Same read-out and setting: with `CC(C)CCN(C)c1ccc(-c2noc(-c3cccc(C(=O)NS(=O)(=O)c4ccccc4)c3)n2)cc1NC(=O)c1cccs1` [compound 43] the figure was 83%. Consider `O=C1c2cccc3cccc(c23)C(=O)N1c1cccc(C#Cc2cccc(C(F)(F)F)c2)c1` [compound 70], for which, under setting [4], the inhibition at 1 µM is 62%. Regarding `CCCCS(=O)(=O)NC(=O)C1CCc2ccccc2[C@@H]1NC(=O)c1ccc2nc(-c3cc(C(F)(F)F)cc(C(F)(F)F)c3)ccc2c1` (stereo partly drawn) [compound 57], the inhibition at 1 µM under setting [5] came out at 59%.

Regarding `Cn1cnc(S(=O)(=O)NC(=O)c2cccc(-c3nc(-c4ccc(-c5csc(-c6ccccc6)n5)cc4)no3)c2)c1` [Compound 139-III], the inhibition at 1 µM under setting [2] turned out to be 96%. As for `CCCCCC(=O)NS(=O)(=O)c1ccccc1NC(=O)c1ccc2nc(-c3cc(C(F)(F)F)ccc3F)ccc2c1` [compound 107], the inhibition at 1 µM under setting [5] is 90%. As to `O=C(NS(=O)(=O)c1cccc(-c2nc(-c3ccc(-c4csc(-c5ccccc5)n4)cc3)no2)c1)c1ccc(-n2ccnc2)cc1` [Compound 138-III], the inhibition at 1 µM under setting [2] came out at 100%. For the molecule `COc1cccc(CNc2cc(-c3noc(-c4cccc(C(=O)NS(=O)(=O)c5ccccc5)c4)n3)ccc2N(C)CCC(C)C)c1` [compound 98], under setting [3], the inhibition at 1 µM came to 100%. For `CC(C)CCn1c(-c2ccccc2)nc2cc(-c3nc(-c4cccc(C(=O)NS(=O)(=O)c5ccccc5)c4)no3)ccc21` [Compound 9-II], the inhibition at 1 µM under setting [2] came to 72%.

`CC(C)CCN(C)c1ccc(C(=O)NC(CC(=O)NS(=O)(=O)c2ccc(C(=O)O)cc2)C2CCCCC2)cc1NCc1ccccc1` (stereo not drawn) [Compound 138-IV]: the inhibition at 1 µM under setting [3] was 63%.

With `CC(C)CCN(C)c1ccc(C(=O)NC(CC(=O)NS(=O)(=O)c2ccccc2)C2CCCCC2)cc1N(C)CC1CCCCC1` (stereo not drawn) [compound 94], the inhibition at 1 µM under setting [3] came to 96%. Take `CCN(CC)c1ccc(-c2csc(-c3ccc(-c4csc(-c5cccc(S(=O)(=O)NC(=O)c6ccncc6)c5)n4)cc3)n2)cc1` [Compound 147-III]: under setting [2], the inhibition at 1 µM was 65%.

Regarding `CC(C)(C)c1ccc(C(=O)NS(=O)(=O)c2ccccc2NC(=O)c2ccc3nc(-c4cccc(C(F)(F)F)c4)n(-c4ccccc4)c3c2)cc1` [compound 5], the inhibition at 1 µM under setting [1] is 89%. Turning to `O=C(NS(=O)(=O)c1ccc(-c2nc(-c3ccc(-c4csc(-c5ccccc5)n4)cc3)no2)cc1)c1ccccc1` [Compound 135-III], the inhibition at 1 µM under setting [2] was 98%.

Turning to `O=S(=O)(Nc1ccc(-c2csc(-c3ccc(C(F)(F)F)cc3)n2)cc1)c1cccc(S(=O)(=O)Nc2ccc(-c3csc(-c4ccc(C(F)(F)F)cc4)n3)cc2)c1` [compound 55], under setting [4], the inhibition at 1 µM was determined as 73%. For the molecule `Cc1ccccc1S(=O)(=O)NC(=O)CC(NC(=O)c1ccc(N(C)CCC(C)C)c(NCC2CCCC2)c1)C1CCCCC1` (stereo not drawn) [compound 126], the inhibition at 1 µM under setting [3] came out at 91%. For `Cc1ccccc1S(=O)(=O)NC(=O)CC(NC(=O)c1ccc(N(C)CCC(C)C)c(NCCc2ccccc2)c1)C1CCCCC1` (stereo not drawn) [compound 125], the inhibition at 1 µM under setting [3] stood at 98%. In the case of `CC(C)CCN(C)c1ccc(-c2noc(-c3cccc(C(=O)NS(=O)(=O)c4ccccc4)c3)n2)cc1NC(C)c1ccccc1` (stereo not drawn) [compound 106], the inhibition at 1 µM under setting [3] was found to be 100%. For the molecule `O=C(O)c1ccc(-c2nc(-c3ccc(-c4csc(-c5ccc(C(F)(F)F)cc5)n4)cc3)no2)cc1` [compound 51], under setting [4], the inhibition at 1 µM stood at 53%. On to `O=C(O)c1ccc(S(=O)(=O)NC(=O)c2cccc(-c3nc(-c4ccc(-c5csc(-c6ccccc6)n5)cc4)no3)c2)cc1` [Compound 144-III], for which the inhibition at 1 µM under setting [2] stood at 97%. Regarding `CC(C)c1ccc(S(=O)(=O)NC(=O)C[C@H](NC(=O)c2ccc3nc(-c4cc(C(F)(F)F)cc(C(F)(F)F)c4)ccc3c2)C2CCCCC2)cc1` [compound 50], under setting [5], the inhibition at 1 µM stood at 87%. For the molecule `CC(C)CCN(C)c1ccc(C(=O)NC(CC(=O)NS(=O)(=O)c2ccccc2)C2CCCCC2)cc1NCc1nccs1` (stereo not drawn) [compound 92], the inhibition at 1 µM under setting [3] was found to be 49%. For the molecule `CCCCS(=O)(=O)NC(=O)CC(NC(=O)c1ccc2nc(-c3cc(C(F)(F)F)cc(C(F)(F)F)c3)ccc2c1)c1cccc(N)c1` (stereo not drawn) [compound 102], the inhibition at 1 µM under setting [5] came to 45%. As for `CC(C)CCN(C)c1ccc(C(=O)NC(CC(=O)NS(=O)(=O)c2ccccc2)C2CCCCC2)cc1NC(C)C` (stereo not drawn) [compound 84], under setting [3], the inhibition at 1 µM worked out at 52%.

With `O=S(=O)(Nc1ccc(-c2csc(-c3ccccc3)n2)cc1)c1ccccc1NO` [compound 78], the inhibition at 1 µM under setting [4] came to 55%. As to `CC(C)CCN(C)c1ccc(-c2noc(-c3cccc(C(=O)NS(=O)(=O)c4ccccc4)c3)n2)cc1NCc1cccc(F)c1` [compound 101], the inhibition at 1 µM under setting [3] worked out at 100%.

As for `CC(C)c1ccc(S(=O)(=O)NC(=O)c2ccc3c(c2)CN(c2cccc(-c4csc(-c5ccccc5)n4)c2)C3)cc1` [compound 118], the inhibition at 1 µM under setting [4] is 60%. For the molecule `CC(C)CCN(C)c1ccc(C(=O)NC(CC(=O)NS(=O)(=O)c2ccccc2)C2CCCCC2)cc1NCc1ccco1` (stereo not drawn) [compound 90], under setting [3], the inhibition at 1 µM stood at 62%. With `CCC(CC)C(=O)Nc1cc(-c2noc(-c3cccc(C(=O)NS(=O)(=O)c4ccccc4)c3)n2)ccc1N(C)CCC(C)C` [compound 42], the inhibition at 1 µM under setting [3] was 76%. For the molecule `O=C(O)c1ccccc1C(=O)Nc1ccc(-c2csc(-c3cc(C(F)(F)F)ccc3F)n2)cc1` [compound 99], the inhibition at 1 µM under setting [4] was found to be 52%. With `O=C(Nc1cccc(C(=O)NS(=O)(=O)c2ccccc2)c1)c1ccc(NCCN2CCCC2)c([N+](=O)[O-])c1` [compound 67], under setting [3], the inhibition at 1 µM was found to be 58%. In the case of `CC(C)CCN(C)c1ccc(C(=O)NC(CC(=O)NS(=O)(=O)c2cn(C)cn2)C2CCCCC2)cc1NCCc1ccccc1` (stereo not drawn) [Compound 162-IV], the inhibition at 1 µM under setting [3] worked out at 85%. For the molecule `Cc1ccccc1S(=O)(=O)NC(=O)CC(NC(=O)c1ccc(N(C)CCC(C)C)c(NCC2CCCCC2)c1)C1CCCCC1` (stereo not drawn) [compound 83], the inhibition at 1 µM under setting [3] stood at 92%. Regarding `O=C(NS(=O)(=O)c1cccc(-c2nc(-c3ccc(-c4csc(-c5ccccc5)n4)cc3)no2)c1)c1cccs1` [Compound 143-III], the inhibition at 1 µM under setting [2] amounted to 83%. As to `CC(C)CCN(C)c1ccc(C(=O)NC(CC(=O)NS(=O)(=O)c2ccccc2)C2CCCCC2)cc1NCC1CCCCC1` (stereo not drawn) [compound 55], the inhibition at 1 µM under setting [3] was 90%.
